# Test results reported in PMC7600788, “Sequence Permutation Generates Peptides with Different Antimicrobial and Antibiofilm Activities” (Pharmaceuticals, 2020).
# No end group written: not given here.
# Assays:
# A. baumannii B28-16 = assay type: cell-based, Acinetobacter baumannii; conditions: B28-16
# Method in brief: (§1)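 Broth microdilution: log-phase cultures diluted to OD600 ~0.001 were treated with two-fold peptide dilutions and incubated overnight at 37 °C, then read at 630 nm. MBC was the lowest concentration giving no growth when wells at or above MIC were plated.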
# [1] = test system: monkey kidney Vero E6 cells; assay type: cell-based
# Method in brief: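 HaCaT cells and PMA-differentiated THP-1 macrophages (30 ng/mL PMA, 16 h) seeded at 3 × 10^4/well; Vero E6 cells grown in EMEM. Peptides applied at varying concentrations in serum-free medium for one hour. Viability read by MTS reduction (2 h, 37 °C), absorbance at 492 nm.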
# E. coli K12 = assay type: cell-based, Escherichia coli; conditions: K12
# Method in brief: as §1
# P. aeruginosa PAO1 = assay type: cell-based, Pseudomonas aeruginosa; conditions: PAO1
# Method in brief: as §1
# E. coli ML35p = test: Simultaneous outer and inner membrane permeation (nitrocefin / ONPG); assay type: cell-based, Escherichia coli; conditions: 3.1 µM
# From the text: To confirm the mechanism of action, we also performed membrane permeation using a reporter strain of E. coli ML35p. This strain enabled simultaneous monitoring of membrane permeation of both the inner and outer membranes of Gram-negative bacterium E. coli. Both WW295 and WW298 were included in the experiment. […] This is indicated by the sharp development of absorbance at 490 nm for nitrocefin (panel A) and at 420 nm for ONPG (panel B).
# The E. coli ML-35p strain was utilized to probe the permeation of both the outer membrane (OM) and inner membrane (IM). This strain was engineered to have two membrane reporters. Nitrocefin is used for detection of OM permeabilization. Nitrocefin is excluded from the periplasm. […] The chromogenic cleavage product was spectrophotometrically monitored at 490 nm. […] However, permeabilization of the IM helps ONPG to enter cytoplasm and get cleaved by cytoplasmic β-galactosidase into o-nitrophenol, which can be detected spectrophotometrically at 420 nm. […] Absorbances at both 490 and at 420 nm were monitored using FLUOstar Omega (BMG, Labtech, NC, USA) simultaneously. After shaking at 100 rpm, readings were taken every 2 min for a total of 40 min at 37 °C. Data were analyzed using the MARS data analysis software provided by the manufacturer and representative plots were made using the GraphPad Prism 7 software.
# B. subtilis 167 = assay type: cell-based, Bacillus subtilis; conditions: 167
# Method in brief: as §1
# E. faecium VRE = assay type: cell-based; conditions: VRE
# Method in brief: as §1
# E. coli ATCC 25922 = assay type: cell-based, Escherichia coli; conditions: ATCC 25922
# Method in brief: (§2)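 Broth microdilution with log-phase cultures diluted to OD600~0.001 and two-fold peptide dilutions, incubated overnight at 37 °C and read at 630 nm. MBC taken by plating clear wells at or above MIC. Physiological saline or human serum was present for the whole experiment.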
# Pig RBC = test: Hemolytic assay; assay type: cell-based
# Method in brief: (§3)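 RBCs washed in PBS and used as 2% (v/v) suspension; incubated with peptide 1 h at 37 °C, then centrifuged and haemoglobin release read at 545 nm. Lysis normalised to 2% Triton X-100 (100%) and PBS (0%); HC50 is the peptide concentration giving 50% lysis.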
# human red blood cells = test: Hemolytic assay; assay type: cell-based; conditions: red cells of human
# Method in brief: as §3
# chicken red blood cells = test: Hemolytic assay; assay type: cell-based
# Method in brief: as §3
# S. aureus USA300 LAC = assay type: cell-based, Staphylococcus aureus; conditions: USA300
# Method in brief: as §2
sequence,measurement,setting,value
RKIWWWWL [WW295],"Minimal Inhibitory Concentration (MIC), AB",A. baumannii B28-16,6.25 to 12.5 µM
same,"Vero Cells, concentration that caused 50% cell death (LC50)",[1],>100 µM
same,"Minimal Inhibitory Concentration (MIC), EC",E. coli K12,6.2 µM
same,"Minimal Inhibitory Concentration (MIC), PA",P. aeruginosa PAO1,25 to 50 µM
same,"outer and inner membrane permeation (nitrocefin 490 nm, ONPG 420 nm)",E. coli ML35p,entered both outer and inner membranes
same,"Minimal Inhibitory Concentration (MIC), BS",B. subtilis 167,12.5 µM
same,"Minimal Inhibitory Concentration (MIC), VRE",E. faecium VRE,6.25 µM
same,"MIC, +150 mM NaCl",E. coli ATCC 25922,6.2 µM
same,"MIC, +10% Human Serum",E. coli ATCC 25922,12.5 µM
same,"MIC, TSB",E. coli ATCC 25922,3.1 µM
same,"Pig RBC, concentration that caused 50% red blood cell lysis (HC50)",Pig RBC,>100 µM
same,"Human RBC, concentration that caused 50% red blood cell lysis (HC50)",human red blood cells,57 µM
same,"Chicken RBC, concentration that caused 50% red blood cell lysis (HC50)",chicken red blood cells,100 µM
same,"MIC, +150 mM NaCl",S. aureus USA300 LAC,3.1 µM
same,"MIC, +10% Human Serum",S. aureus USA300 LAC,12.5 µM
same,"MIC, TSB",S. aureus USA300 LAC,3.1 µM
